Source: patent publication US6541503B2, “Substituted oxindole derivatives as protein tyrosine kinase and as protein serine/threonine kinase inhibitors” (SmithKline Beecham Corporation, priority 1997, dated 2003)
Where two headings read alike, the source gives them in different places.

How the values were obtained:
CDK1 = CDK1 (Homo sapiens, UniProt P06493); assay: Cyclin dependent protein kinase substrate phosphorylation assay, CDK1; type: biochemical
Description: Cyclin dependent protein kinase assays utilized the peptides Biotin-aminohexyl-[…] and Biotin-aminohexyl-[…]-NH2 as phosphoryl group acceptors. CDK1 and CDK2 were both expressed utilizing a baculovirus expression system and were partially purified to comprise 20-80% of total protein, with no detectable competing reactions present. Typically, assays were performed by incubating either enzyme (0.2-10 nM), with and without inhibitor, one of the two peptide substrates ([…]), [γ-^32P]ATP ([…]), and 10-20 mM Mg^2+ for periods of time generally within the range 10-120 min. Reactions were terminated with 0.2-2 volumes of either 20% acetic acid or 50-100 mM EDTA buffered to pH 7 (substrate consumption<20%). The buffer employed in enzyme assays was either 30 mM HEPES 7.4 containing 0.15 M NaCl and 5% DMSO, the buffer 50 mM MOPS 7.0 containing 0.15 M NaCl and 5% DMSO, or the buffer 100 mM HEPES pH 7.5 containing 0.1 mg /mL BSA and 5% DMSO. Inhibitors were diluted in 100% DMSO prior to addition into the assay. Detection of peptide phosphorylation was accomplished by scintillation counting following either collection of peptide onto phosphocellulose filters (for reactions stopped with acetic acid), collection of peptide in wells of 96 well plates coated with Streptavidin (Pierce) (reactions were stopped with EDTA), or addition of Avidin coated Scintillant impregnated beads (Scintillation Proximity Assays from Amersham, reactions were stopped with EDTA).

[1] = system: RKO colon adenocarcinoma cells; assay: FACS assay (cell death by flow cytometry), RKO; type: cell-based, human; conditions: Homo sapiens, 72 h, read-out: FACS RKO IC50
Description: These assays allow determination of both cell death and changes in cell cycle profile in cells following treatment of the compound. The assay is performend as follows:
1. Cells are incubated in DMEM to which 10% FCS has been added in a humidified incubator at 37° C. and 5% by volume of CO2 in air. The cells are innoculated in 6-well plates at a density of 0.5-5×10^5 cells per well.
2. The test compound is added in serial dilutions 24-36 h after plating in 0.5% DMSO. The plates are then incubated a further 72 h in the presence of the compound. During this time, cells in control cultures undergo at least three cell divisions.
3. After incubation, the media is collected and cells are harvested by trypsinization. The cells and media are pooled and pelleted by centrifugation.
4. The cell pellet is fixed in a final volume of 3 mL of 50% ice cold MeOH and incubated for a minimum of 30 min at −20° C.
5. The cells are pelleted by centrifugation and resuspended in 0.5 mL PBS containing 1%FCS, […] Propidium Iodide (PI) and 5 mg/mL RNase A and incubated 30 min at 37° C. in the dark.
6. The samples are analysed by flow cytometry using the relative incorporation of PI as a measure of DNA content of each cell. The % Dead cells is recorded as % of events with less than 2N DNA.
HDF are normal diploid fibroblast cells. RKO are colon adenocarcinoma cells and MES/SA are […].

[2] = system: human diploid fibroblasts (HDF-3); assay: G1-S progression assay (BrdU incorporation); type: cell-based
Description: This assay is designed to determine the ability of compounds to inhibit progression of cells from G1 into S-phase. […] The protocol is as follows:
(1) Grow human diploid fibroblasts (HDF-3) in 100 mm tissue culture dish to confluency. (2) Plate 6-7×10^3 cells/well in a 96 well plate in 100 μl of DMEM. (3) After 16-17 h add various dilutions of test compounds (0.045-100 μM). Dilute compound in DMEM containing DMSO and add 100 μl to each well so that the DMSO conc. is 0.6-0.8% in 200 μl final volume. (4) Two h after addition of compound, add 20 ul of 100 μM BrdU (final conc. 10 μM) Make 100 μM solution in DMEM from 10 mM stock solution. (5) After 4 h, add 200 μl PBS to each well and remove the contents of the wells by inverting the plate and soaking on to the paper towel. Repeat the washing step three times, with 400 ul PBS each time. (6) Fix the cells and denature the DNA by adding 200 μl fixation/denaturation solution to each well for 30-40 min. (7) Remove the fixation/denaturation solution by tapping the plate on the paper towel and add 75 ul of anti BrdU peroxidase antibody to each well. (dilute the antibody to 0.1 U/mL from 15 U/mL stock in PBS containing 1% BSA, Fraction V). Incubate the plate O/N at 4° C. (8) Remove the antibody solution and wash wells four times with 400 μl of PBS. Let the wash solution stay for 3-4 min during each wash. (9) Drain the wells and add 100 μl of chemiluminiscence Elisa reagent (Prepare the reagent 15-20 min before use to bring it to rt by mixing 100 parts of reagent A with 1 part of reagent B). (10) Read the plate in a luminometer. Take 2-3 readings within 6-7 min. Perform the following controls:
Deoxybromouridine (BrdU), anti BrdU peroxidase antibodies, fixation/denaturation solution, chemiluminiscence reagent and BSA Fraction V, were obtained from Boehringer Mannheim. The 96-well white plate with clear bottom were purchased from Corning Costar Corporation. Dulbecco's Modified Eagle Medium containing high glucose, L-glutamine and pyridoxine HCl was obtained from GIBCO BRL.

UL97 = molecular target: T1, UL97 (Human cytomegalovirus, UniProt P16788); assay: UL97 protein kinase assay, 32P transfer from ATP to histone H2B; type: biochemical
T1 construct: GST; made in house; host or cells: baculovirus vector in Sf9 cells
Description: UL97 was produced as a GST fusion protein from a baculovirus vector expressed in sf9 cells as described by He (He, et al., Journal of Virology 1997, 71, 405-11). UL97 was assayed as a protein kinase using ^32P transfer from ATP to histone H2B with detection of radiolabeled histone bound to phosphocellulose. Assay mixes for testing inhibitors of UL97 activity contained 2 mM [γ^32P]-ATP, 15 mM histone H2B, 50 mM sodiumCHES, pH 9.5, 1 M NaCl, 2 mM dithiothreitol and 10 mM MgCl2. Inhibitors were dissolved in diluted DMSO to give a final DMSO concentration in the reaction of 1% DMSO. After incubation at 20° C., the reactions were terminated by addition of 10 volumes of 75 mM phosphoric acid, 30 mM ATP, 1 mM EDTA, then were spotted onto phosphocellulose filters and washed four times with 75 mM phosphoric acid. Radioactivity was determined by liquid scintillation counting.

[3] = Homo sapiens, Fibroblast, read-out: G1/S Chkpt IC50
[4] = Homo sapiens, Fibroblast; read-out: G1/S Chkpt IC50

T1 sequence (P16788 whole entry): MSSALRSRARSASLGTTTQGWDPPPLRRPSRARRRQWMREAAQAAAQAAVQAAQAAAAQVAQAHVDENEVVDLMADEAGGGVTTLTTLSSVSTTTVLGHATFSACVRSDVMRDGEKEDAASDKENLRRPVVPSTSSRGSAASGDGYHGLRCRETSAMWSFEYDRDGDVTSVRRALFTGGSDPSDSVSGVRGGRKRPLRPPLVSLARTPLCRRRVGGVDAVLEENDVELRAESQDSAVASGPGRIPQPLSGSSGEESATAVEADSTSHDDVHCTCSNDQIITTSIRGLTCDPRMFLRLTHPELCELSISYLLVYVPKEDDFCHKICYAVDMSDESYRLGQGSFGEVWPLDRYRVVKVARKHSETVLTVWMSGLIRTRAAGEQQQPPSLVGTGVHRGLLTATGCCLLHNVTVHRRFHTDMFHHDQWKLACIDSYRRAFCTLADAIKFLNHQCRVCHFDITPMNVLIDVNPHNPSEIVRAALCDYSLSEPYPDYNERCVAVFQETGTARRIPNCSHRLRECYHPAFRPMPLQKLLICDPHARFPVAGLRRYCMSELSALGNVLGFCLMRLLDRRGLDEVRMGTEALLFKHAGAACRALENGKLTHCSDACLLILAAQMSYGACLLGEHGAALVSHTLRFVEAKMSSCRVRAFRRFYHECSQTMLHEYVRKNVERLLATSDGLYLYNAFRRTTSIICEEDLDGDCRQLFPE
Sequence of CDK1 (P06493 whole entry, species assumed): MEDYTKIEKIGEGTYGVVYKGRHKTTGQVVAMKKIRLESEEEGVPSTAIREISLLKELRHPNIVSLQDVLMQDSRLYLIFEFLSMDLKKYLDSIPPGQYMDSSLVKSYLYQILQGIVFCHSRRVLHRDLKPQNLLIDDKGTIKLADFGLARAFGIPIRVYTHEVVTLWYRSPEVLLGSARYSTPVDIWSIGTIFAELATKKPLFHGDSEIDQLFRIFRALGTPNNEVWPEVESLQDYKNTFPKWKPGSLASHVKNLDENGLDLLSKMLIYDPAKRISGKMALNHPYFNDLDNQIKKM
Sequence of CDK1 (P14635 whole entry partner, species assumed): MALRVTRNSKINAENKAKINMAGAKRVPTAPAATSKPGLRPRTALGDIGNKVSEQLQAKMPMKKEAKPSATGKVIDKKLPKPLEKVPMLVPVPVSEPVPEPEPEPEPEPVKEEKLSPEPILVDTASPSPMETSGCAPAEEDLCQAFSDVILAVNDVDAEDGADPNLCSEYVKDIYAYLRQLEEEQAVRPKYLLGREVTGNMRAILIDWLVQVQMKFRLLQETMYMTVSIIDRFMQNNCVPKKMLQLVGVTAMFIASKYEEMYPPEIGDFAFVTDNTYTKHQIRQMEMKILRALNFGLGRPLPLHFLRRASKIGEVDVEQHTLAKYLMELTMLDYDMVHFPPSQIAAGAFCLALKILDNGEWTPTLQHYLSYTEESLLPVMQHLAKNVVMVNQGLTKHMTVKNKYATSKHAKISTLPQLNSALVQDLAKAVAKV

SMILES | IC50 (CDK1; read-out: CDK1 IC50) | IC50 [1] | IC50 [2, 3] | IC50 (UL97) | IC50 ([1]; 50% cell death) | IC50 [2, 4] | IC50 (CDK1)
CNS(=O)(=O)Cc1ccc(NN=C2C(=O)Nc3ccc4ncccc4c32)cc1 [Example 68, N-Methyl-C-{4-[N′-(2-oxo-2,3-dihydro-pyrrolo[3,2-f]quinolin-1-ylidene)-hydrazino]-phenyl}-methanesulfonamide] | 0.051 to 0.1 µM | 1.1 to 5 µM | 1.1 to 5 µM | 0.011 to 0.05 µM |  |  | 
CC(C)(CO)CNS(=O)(=O)c1ccc(NC=C2C(=O)Nc3ccc4ncsc4c32)cc1 [Example 77, N-(3-Hydroxy-2,2-dimethyl-propyl)-4-[(7-oxo-6,7-dihydro-1-thia-3,6-diaza-as-indacen-8-ylidenemethyl)-amino]-benzenesulfonamide] | 0.001 to 0.01 µM |  |  | 0.001 to 0.01 µM | 1.1 to 5 µM | 1.1 to 5 µM | 
O=C1Nc2ccc3ncsc3c2C1=CNc1ccc(S(=O)(=O)Nc2ccccn2)cc1 [Example 72, 4-[(7-Oxo-6,7-dihydro-1-thia-3,6-diaza-as-indacen-8-ylidenemethyl)-amino]-N-pyridin-2-yl-benzenesulfonamide] |  | 1.1 to 5 µM | 1.1 to 5 µM | 0.011 to 0.05 µM |  |  | 0.051 to 0.1 µM
CS(=O)(=O)Cc1ccc(NC=C2C(=O)Nc3ccc4ncsc4c32)cc1 [Example 76, 8-(4-Methylsulfonylmethyl-phenylamino-methylene)-6,8-dihydro-1-thia-3,6-diaza-as-indacen-7-one] | > 0.1 µM |  |  |  | 1.1 to 5 µM | 1.1 to 5 µM | 
CNS(=O)(=O)Cc1ccc(NN=C2C(=O)Nc3cc(C)c(O)c(C)c32)cc1 [Example 99] | > 0.1 µM |  |  | 0.001 to 0.01 µM | 0.1 to 0.5 µM | 1.1 to 5 µM | 
